# Assay: Solubility of NOBS in selected solvents
# Type: physicochemical
# Conditions: TFA versus acetic acid; ambient temperature
# Excerpt: The solvent properties of TFA are unique and highly advantageous in the synthesis of phenolsulfonate esters. […] It is notable that the only solvent in which NOBS is more soluble than water is TFA. I have found no better solvent for NOBS than TFA. This is surprising. […] It is likely that hydrogen bonding in TFA facilitates the solvation of sulfonate anions but it is notable, in contrast, that such effects are much weaker in acetic acid. Furthermore, while it is known in the art that dimethyl sulfoxide (DMSO) and dimethylformamide (DMF) are relatively good solvents for benzenesulfonate esters they are much weaker solvents than TFA and because TFA has a much lower boiling point than these dipolar aprotic solvents it is the only good solvent for benzenesulfonate esters which can be readily stripped from product solutions and then purified and recycled with relative ease.
compound,measurement,value
"CCCCCCCCC(=O)Oc1ccc(S(=O)(=O)[O-])cc1.[Na+] [NOBS, sodium 4-(nonanoyloxy)benzene sulfonate]",Amount of NOBS dissolved by TFA relative to the amount soluble in acetic acid,more than ten times
